Entries after “also recorded” stand apart in the source; their conditions may differ. Non-standard residues stand in square brackets, D forms with d. No end group written: not given here.
Test system: mouse retinal angiogenesis
Assay: Mouse model for inducing retinal angiogenesis using oxygen partial pressure (75% oxygen, then normal 20%); FITC-dextran fluorescence microscopy of retina
Format: in vivo
Conditions: intraperitoneally; for retinal blood vessels observed (Example 2): FIG. 4; for retinal blood vessels observed (Example 2) / retinal blood vessels observed (Example 3): dose not given; for effect compared between polypeptides SEQ ID NOs: 1, 2 and SEQ ID NO: 3 (Example 2): FIG. 4 versus FIG. 2; for retinal blood vessels observed (Example 3): FIG. 2 and FIG. 5
Protocol: For this purpose, a mouse was kept for 5 days under a high oxygen environment with a constant 75% oxygen partial pressure 7 days after the mouse was born in an apparatus that can adjust an oxygen partial pressure, and then kept under a 20% oxygen pressure which is a normal oxygen partial pressure. […] In order to observe the blood vessels, 50 mg of FITC-dextran having a molecular weight of 2×10^6 was dissolved in 1 ml of saline, and the resultant solution was injected through the left ventricle. The mouse eyeball was extracted immediately after the injection. The extracted eyeball was washed with saline, fixed with 1% paraformaldehyde for 4 to 24 hours, and then a lens was removed from the eyeball. Then, the resultant mouse retina was evenly spread over a glass slide, and the glass slide was sealed with glycerine-gelatin, and then observed using a fluorescence microscope. The degree on abnormal vessel, avascular lesion and vascular leakage caused by the retinopathy was digitalized and the retinopathy score was compared.

Row | Substance | retinal blood vessels observed (Example 2) | effect compared between polypeptides SEQ ID NOs: 1, 2 and SEQ ID NO: 3 (Example 2) | effect compared with TP508 (SEQ ID NO: 3) (Example 3) | retinal blood vessels observed (Example 3)
1 | Cyclo(-Arg-Gly-Asp-D-Phe-Val) (cyclo(RGD[dF]V)) [SEQ ID NO: 1] | normal angiogenesis is induced but abnormal angiogenesis is suppressed; also recorded: the abnormal angiogenesis was decreased and the normal blood vessels were observed | the same advantageous effect |  | 
2 | H-Gly-Phe-Gly-Arg-Gly-Asp-Ser-Pro-Cys-Ala-OH (H-GFGRGDSPCA-OH) [SEQ ID NO: 2] | normal angiogenesis is induced but abnormal angiogenesis is suppressed; also recorded: the abnormal angiogenesis was decreased and the normal blood vessels were observed | the same advantageous effect |  | 
3 | DEGKRGDGDACEGDS [SEQ ID NO: 6, smaller peptide than the TP508; chemical synthesis] |  |  | had a similar effect as the TP508 | normal angiogenesis is induced but abnormal angiogenesis is suppressed and the vascular leakage is decreased; also recorded: the abnormal angiogenesis, avascular lesion and vascular leakage were decreased and the normal blood vessels were observed
4 | Thrombin [SEQ ID NO: 4] |  |  | had a similar effect as the TP508 | normal angiogenesis is induced but abnormal angiogenesis is suppressed and the vascular leakage is decreased; also recorded: the abnormal angiogenesis, avascular lesion and vascular leakage were decreased and the normal blood vessels were observed
